Data from paper PMC2897950 (Cellular microbiology, 2010).

Biological target: T1, EhSir2a (EhSir2a-HH) (Entamoeba histolytica, UniProt C4LSH3)
T1 sequence (C4LSH3 1-383): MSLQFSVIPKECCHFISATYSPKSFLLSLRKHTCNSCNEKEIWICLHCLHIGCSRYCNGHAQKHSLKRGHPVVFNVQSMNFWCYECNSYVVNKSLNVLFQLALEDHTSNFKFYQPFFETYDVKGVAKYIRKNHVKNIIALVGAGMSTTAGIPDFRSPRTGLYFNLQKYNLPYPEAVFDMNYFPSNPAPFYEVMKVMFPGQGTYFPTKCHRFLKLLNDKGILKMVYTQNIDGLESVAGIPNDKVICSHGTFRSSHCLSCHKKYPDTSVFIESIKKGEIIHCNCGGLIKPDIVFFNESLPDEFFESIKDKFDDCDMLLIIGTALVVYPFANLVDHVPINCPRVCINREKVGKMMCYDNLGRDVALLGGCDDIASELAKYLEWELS
Test: fluorescent deacetylase assay
Type: biochemical
Settings: 500 µM NAD+, 37 °C, 2 h; co-substrate of deacetylation

NC(=O)c1ccc[n+]([C@@H]2O[C@H](COP(=O)(O)OP(=O)(O)OC[C@H]3O[C@@H](n4cnc5c(N)ncnc54)[C@H](O)[C@@H]3O)[C@@H](O)[C@H]2O)c1 [NAD^+]
fluorescent deacetylase assay (Biomol kit), enzyme on Ni-NTA beads: EhSir2a showed high levels of deacetylase activity when NAD^+ was added
